Experimental data as given in PubChem BioAssay AID651549 (Sanford-Burnham Center for Chemical Genomics, 2012).
Activity calls are given as the source filed them.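 The calls were made as follows: active = compounds blocking the PEG3 reporter with IC50 up to 10 µM at either incubation, yet sparing the GAPDH control reporter; inactive = the rest.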

Assay: GAPDH and PEG-3 promoter luciferase suppression – cell-based, luminescence, set 2, counter-screen for PEG-3 promoter inhibitor project, dose response (AID 651549)
Conditions: HeLa PEG-Prom-luciferase or GAPDH-reporter, 6/24 h

Row | Structure (SMILES) | IC50 (GAPDH, run 1, 6 h) | IC50 (GAPDH, run 1, 24 h) | IC50 (PEG-3, run 1, 6 h) | IC50 (PEG-3, run 1, 24 h)
1 | O=C(O)c1ccc(Nc2nc3c(s2)CCCC3)cc1 | 8.49 µM | 9.1 µM | inactive | inactive
2 | CCC1(O)C(=O)OCc2c1cc1n(c2=O)Cc2cc3cc(O)ccc3nc2-1 (stereo not given) | 3.1 µM | 4.36 µM | 3.1 µM | 9.31 µM
3 | Cc1oc(-c2ccc3c(c2)OCCO3)cc1C(=O)O | 4.9 µM | 7.36 µM | 7.66 µM | inactive
4 | Cc1cccc(NC(=O)c2oc3ccc(S(=O)(=O)N4CCOCC4)cc3c2C)c1C | inactive | 6.39 µM | > 99 µM (inactive) | 8.47 µM
5 | O=C(Nc1ccccc1C(=O)Nc1nnc(C(F)(F)F)s1)c1ccccc1 | 1.41 µM | 7.02 µM | > 99 µM (inactive) | inactive
6 | COCCn1c(C)cc(C(=O)COc2ccc(C)nc2[N+](=O)[O-])c1C | inactive | inactive | inactive | inactive
7 | Cc1cc(C)c(C)c(S(=O)(=O)N2CCN(C(=O)c3cc(=O)[nH]c4ccccc34)CC2)c1C | inactive | 4.79 µM | > 99 µM (inactive) | inactive
8 | CC(=O)OC1CC2(O)C3CCC4CC(O)CCC4(C)C3CCC2(C)C1C1=CC(=O)OC1 (stereo not given) | 0.416 µM | 0.458 µM | > 99 µM (inactive) | 0.499 µM
9 | O=C(c1ccco1)N1CCN(C(c2ccccc2Cl)c2nnnn2Cc2cccs2)CC1 (stereo not given) | inactive | inactive | > 99 µM (inactive) | inactive
10 | CCSc1nc2ccccc2n1C(=O)/C=C\c1ccc(OC)c(OC)c1 | 6.8 µM | 5.39 µM | 6.76 µM | 6.91 µM
11 | Cc1cc(C(=O)Nc2cccc(C(=O)O)c2)oc1C | 7.74 µM | inactive | inactive | inactive

Further lines, results first:

Row | IC50 (GAPDH, run 1, 6 h) | IC50 (GAPDH, run 1, 24 h) | IC50 (PEG-3, run 1, 6 h) | IC50 (PEG-3, run 1, 24 h) | Structure (SMILES)
12 | 1.39 µM | 0.789 µM | 0.625 µM | 0.681 µM | COC(=O)C1=C(CN2CCCc3ccccc32)NC(=O)NC1c1ccc(F)cc1 (stereo not given)
13 | 3.81 µM | 1.98 µM | > 99 µM (inactive) | 1.96 µM | Cc1ccc2nc(NC(=O)CSCC(=O)OCC(=O)c3ccc(Br)cc3)sc2c1
14 | 1.16 µM | 1.68 µM | 1.05 µM | 0.798 µM | COc1ccc(Nc2ncnc3ccc(Br)cc23)c(OC)c1
15 | > 99 µM (inactive) | 4.26 µM | > 99 µM (inactive) | 5.57 µM | CS(=O)(=O)Nc1cccc(NC(=O)C2Cc3c(-c4ccccc4)ccnc3O2)c1 (stereo not given)
16 | inactive | 3.4 µM | inactive | inactive | CS(=O)(=O)c1ccc(-c2cn3cc(C(=O)O)ccc3n2)cc1
17 | 6.04 µM | 0.72 µM | 7.05 µM | 7.03 µM | O=C(O)c1ccc2nc(-c3ccccc3)sc2c1
18 | < 1 µM | 0.533 µM | < 1 µM | 2.74 µM | COC(=O)c1ccc2nc(Nc3nc4ccc(F)cc4s3)sc2c1
19 | inactive | 1.85 µM | > 99 µM (inactive) | 4.62 µM | Cc1cc(C)cc(NS(=O)(=O)c2ccc3c(c2)c(=O)n(C)c(=O)n3C)c1
20 | 5.37 µM | 0.307 µM | 5.56 µM | 4.57 µM | O=C(O)CSCC(=O)Nc1ccc(C2CCCCC2)cc1
